Laboratory results reported in patent US11174267B2, “Spiroindolinones and therapeutic uses thereof” (The Regents of the University of California, priority 2015, dated 2021).
Read-outs that look alike come from different tables or passages of the source.

Tests used:
[1] = in the presence of fluconazole; cited from earlier work
[2] = test system: Resistant Candida albicans (clinical isolate-45); experiment: EC50 in combination with fluconazole, resistant C. albicans; type: cell-based; details: C. albicans clinical isolate-45; [fluconazole] = 64 μg/mL; read-out: EC50 Resistant Candida albicans
Cryptococcus neoformans = experiment: EC50 in combination with fluconazole, Cryptococcus neoformans; type: cell-based; details: [fluconazole] = 4 μg/mL
Text: (§1) Strains and growth condition. The wild-type Candida albicans strains used were SC5314 and CaSS1. Cdr1 heterozygous were from Merck Sharp & Dohme Corp. Double Barcoded (DBC) library of heterozygous Candida albicans mutants (version 2013A). Cdr1 deficient mutant was obtained by counterselection of the GRACE library strain on 5-Fluoroorotic Acid (5-FOA) containing plate. Clinical isolated resistant C. albicans were from Dr. David Rogers. Cryptococcus neoformans var. grubii H99 (ATCC 208821) and Candida glabrata BG2, a fluconazole-resistant clinical isolate, were used. Yeast strains were cultured at 30° C. in synthetic complete (SC) medium containing 2% glucose.
(§2) C. albicans was grown in SC medium overnight and then diluted to an effective OD600 of 0.0625. Serial ten-fold dilutions of the test compounds (0.15-1500 μM) were prepared in DMSO in 1.5 mL Eppendorf tubes. […] The plates were incubated in a rotary shaker/incubator at 30° C. for 16 h. The contents of each well was resuspended with a micropipettor and a 20 μL aliquot was added to a polystyrene cuvette and diluted with 680 μL of deionized water. The suspension was triturated again immediately before measuring the absorbance at 600 nm (OD600) for cell densities. EC50 values were determined by fitting to the Hill equation using the Excel-based tool ED50PLUS v1.0 (Mario H. Vargas) or using Mathematica. Similar procedures were used for Candida glabrata and Cryptococcus neoformans.
(§3) Because fungal drug-efflux ABC transporters are conserved, Cdr1 inhibitors that target the conserved regions of the pumps are expected to inhibit the drug efflux pumps in all fungi including C. albicans. […] Therefore, those spiroindolinones are candidates for combination antifungal therapy with azoles against invasive infections of not only C. albicans, but also other pathogenic fungi.

[3] = test system: susceptible strain (HLY4123) of C. albicans; experiment: Dose-response with fluconazole (0.25 μg/mL) against susceptible strain; type: cell-based, Candida albicans
Protocol: as §2

NIH 3T3 cells = experiment: Cytotoxicity, LDH assay; type: cell-based; details: concentrations up to 1.5 mM
Protocol: The cytotoxicity of spiroindoline Compounds 1, 8 and 25 were tested against NIH 3T3 cells at concentrations up to 1.5 mM (FIG. 13) using an LDH assay.

Candida glabrata = experiment: EC50 in combination with fluconazole, Candida glabrata; type: cell-based; details: [fluconazole] = 128 μg/mL
Text: as §1, §2, §3

[4] = test system: C. albicans strain HLY4123 and clinical isolates 26 and 45; experiment: Checkerboard assay (MIC90, FIC index); type: cell-based, Candida albicans; details: Candida albicans
Protocol: Checkerboard assays were carried out using four 24-well plates. The results on each plate were normalized by duplication of one row and one column with a row and column on another plate. C. albicans was grown in SC medium overnight and then diluted to an effective OD600 of 0.0625. Serial ten-fold dilutions of the test compounds (150 mM) were prepared in DMSO in 1.5 mL Eppendorf tubes. […] Concentrations of compound in rows 1-11 varied from 300 μM to 0.0003 nM; the last row 12 contained no compound. […] The plates were incubated in a rotary shaker/incubator at 30° C. for 16 h. The contents of each well was resuspended with a micropipettor and a 20 μL aliquot was added to a polystyrene cuvette and diluted with 680 μL of deionized water. The suspension was triturated again immediately before measuring the absorbance at 600 nm. The MIC90 values were determined as the lowest concentrations of the drugs (alone or in combination) that inhibited fungal growth by 90% compared with that of the drug-free wells.
In all of the strains tested, the FIC index was below 0.5, fitting the classical definition of synergy.

[5] = biological target: C. albicans sterol α-demethylase (a.k.a. Erg11 or CYP51) (Candida albicans, UniProt P10613); experiment: Literature: inhibition of sterol α-demethylase by fluconazole; type: biochemical; details: ten times the Ki, >90% inhibition expected
Chain of C. albicans sterol α-demethylase (a.k.a. Erg11 or CYP51) (P10613 whole entry): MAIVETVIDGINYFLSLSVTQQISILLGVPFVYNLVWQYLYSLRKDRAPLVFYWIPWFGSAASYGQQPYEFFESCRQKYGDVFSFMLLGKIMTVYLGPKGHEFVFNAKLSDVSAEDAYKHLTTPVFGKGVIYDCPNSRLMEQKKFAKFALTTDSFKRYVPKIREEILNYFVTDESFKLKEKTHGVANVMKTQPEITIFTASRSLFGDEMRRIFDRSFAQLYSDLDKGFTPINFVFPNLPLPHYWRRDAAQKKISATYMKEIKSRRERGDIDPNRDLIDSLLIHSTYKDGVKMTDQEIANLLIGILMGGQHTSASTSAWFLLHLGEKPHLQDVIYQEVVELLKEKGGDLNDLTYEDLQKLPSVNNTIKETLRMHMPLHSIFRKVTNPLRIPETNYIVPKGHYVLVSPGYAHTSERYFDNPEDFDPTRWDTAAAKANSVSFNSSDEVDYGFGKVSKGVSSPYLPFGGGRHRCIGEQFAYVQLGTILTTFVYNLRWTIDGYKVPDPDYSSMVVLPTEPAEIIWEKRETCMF

[6] = test system: resistant clinical isolates of C. albicans; experiment: Screen of resistant clinical isolates, single dose, broth microdilution (growth OD600); type: cell-based, Candida albicans; details: fluconazole 64 μg/mL alone, 16 h in SC at 30° C.
Text: (Flowers, S. A., et al. Eukaryotic Cell 2012, 11, 1289-1299.) The strains grow at dramatically different rates.

[7] = test system: resistant clinical isolates of C. albicans; design: unit not given beside the values; details: cited from earlier work
[8] = Candida albicans, with fluconazole 0.25 μg/mL, strain HLY4123
[9] = with fluconazole 0.25 μg/mL, strain HLY4123

## CN[C@H]1CC[C@@H](c2ccc(Cl)c(Cl)c2)c2ccccc21 [sertraline]
[1]
  MIC: ≥ 0.5 µg/mL

## Cc1c(Cl)ccc2c1NC(=O)[C@]21N[C@H](Cc2ccccc2)[C@@H]2C(=O)N(c3ccccc3)C(=O)[C@@H]21 (racemic) [Compound 8]
[2]
  EC50: 490 nM
Cryptococcus neoformans
  EC50: 11300 nM
[3]; [8]
  EC50: 1 nM
NIH 3T3 cells
  cytotoxicity: weak to negligible cytotoxicity
Candida glabrata
  EC50: 1720 nM

## OC(Cn1cncn1)(Cn1cncn1)c1ccc(F)cc1F [fluconazole, reference compound]
[4]; clinical isolate 26, fluconazole alone, read-out: MICFlc (MIC90)
  MIC90: 836 µM
[4]; clinical isolate 26, with Compound 25, read-out: MICFlc (+cpd) (MIC90)
  MIC90: 105 µM
[4]; clinical isolate 45, fluconazole alone, read-out: MICFlc (MIC90)
  MIC90: 836 µM
[4]; clinical isolate 45, with Compound 25, read-out: MICFlc (+cpd) (MIC90)
  MIC90: 105 µM
[4]; read-out: MIC90 for fluconazole, susceptible strain, Compound 25 present at 300 nM
  MIC90: 0.125 µM
[4]; strain HLY4123, fluconazole alone, read-out: MICFlc (MIC90)
  MIC90: 0.5 µM
[4]; strain HLY4123, with Compound 25, read-out: MICFlc (+cpd) (MIC90)
  MIC90: 0.125 µM
[5]
  theoretical limit for fluconazole potency: around 0.3 μM
[6]; clinical isolate 15
  Growth (OD600) +Fluc: 5.58
[6]; clinical isolate 16
  Growth (OD600) +Fluc: 0.64
[6]; clinical isolate 17
  Growth (OD600) +Fluc: 3.96
[6]; clinical isolate 21
  Growth (OD600) +Fluc: 6.46
[6]; clinical isolate 22
  Growth (OD600) +Fluc: 3.27
[6]; clinical isolate 23
  Growth (OD600) +Fluc: 6.77
[6]; clinical isolate 25
  Growth (OD600) +Fluc: 2.90
[6]; clinical isolate 26
  Growth (OD600) +Fluc: 6.44
[6]; clinical isolate 30
  Growth (OD600) +Fluc: 9.40
[6]; clinical isolate 33
  Growth (OD600) +Fluc: 7.38
[6]; clinical isolate 36
  Growth (OD600) +Fluc: 5.08
[6]; clinical isolate 41
  Growth (OD600) +Fluc: 9.47
[6]; clinical isolate 45
  Growth (OD600) +Fluc: 9.17
[6]; clinical isolate 49
  Growth (OD600) +Fluc: 11.31
[7]; clinical isolate 15
  MICFlc: 16
[7]; clinical isolate 16
  MICFlc: 16
[7]; clinical isolate 17
  MICFlc: 32
[7]; clinical isolate 21
  MICFlc: 32
[7]; clinical isolate 22
  MICFlc: 32
[7]; clinical isolate 23
  MICFlc: 32
[7]; clinical isolate 25
  MICFlc: 32
[7]; clinical isolate 26
  MICFlc: 32
[7]; clinical isolate 30
  MICFlc: 64
[7]; clinical isolate 33
  MICFlc: 64
[7]; clinical isolate 36
  MICFlc: 64
[7]; clinical isolate 41
  MICFlc: 128
[7]; clinical isolate 45
  MICFlc: 128

## Cc1c(Cl)ccc2c1NC(=O)[C@@]21[C@H]2C(=O)N(c3ccccc3)C(=O)[C@H]2[C@H]2CN(C(=O)OC(C)(C)C)CCN21 (racemic) [Compound 9, (±)-tert-Butyl (3R,3a′R,3b'S,9a'S)-6-chloro-7-methyl-1′,2,3′-trioxo-2′-phenyl-2′,3′,3a′,3b′,4′,6′,7′,9a′-octahydrospiro[indoline-3,9′-pyrrolo[3′,4′:3,4]pyrrolo[1,2-a]pyrazine]-5′(1′H)-carboxylate]
[3]; [8]
  EC50: 5.6 nM
[3]; ratio of EC50s, diastereomers
  times more potent than compound 33: over 35
[3]; [9]
  EC50: 6 to 8 nM

## Cc1c(Cl)ccc2c1NC(=O)[C@@]21[C@H]2C(=O)N(c3ccccc3)C(=O)[C@H]2[C@H]2CNCCN21 [Compound 20]
[3]; [9]
  activity (in words): low activity
